# Data: US20240101584A1, “TARGETED DELIVERY OF 1,2,4,5 TETRAOXANE COMPOUNDS AND THEIR USES” (Westlake University, priority 2021, published 2024)
# Like-named read-outs stand apart in the source and are kept apart here.
# Assays:
# [1] = tested on: MDA-MB-231 cells; test: MTT viability assay, MDA-MB-231 cells; assay type: cell-based; details: for IC50: Homo sapiens
# Method: (§1) The anticancer activities of the exemplary compounds listed in Example 1 were tested against human cervix Hela cells, mammary breast cancer MDA-MB-231 cells, human hepatocellular HepG2 cells, human colorectal HCT116 cells, mammary ductal T47D cells, non-cancerous NIH3T3 cells, dog's kidney MDCK cells, and mouse brain bEnd.3 cells, respectively.
# [2] = tested on: Hela cells; test: MTT viability assay, Hela cells; assay type: cell-based, human; details: Homo sapiens, HeLa, 48 h incubation, mean, n = 3, read-out: IC50 against Hela cells
# Method: as §1
# [3] = tested on: T47D cells; test: MTT viability assay, T47D cells; assay type: cell-based; details: for IC50: Homo sapiens, T47D
# Method: as §1
# [4] = tested on: NIH3T3 cells; test: MTT viability assay, non-cancerous NIH3T3 cells; assay type: cell-based; details: Mus musculus, NIH3T3
# Method: as §1
# [5] = tested on: MDCK cells; test: MTT viability assay, MDCK cells; assay type: cell-based, dog; details: Canis lupus familiaris, MDCK, 48 h incubation, mean, n = 3, read-out: IC50 against MDCK cells
# Method: as §1
# [6] = tested on: HCT116 cells; test: MTT viability assay, HCT116 cells; assay type: cell-based, human; details: for IC50: Homo sapiens, HCT-116
# Method: as §1
# [7] = MDA-MB-231, 48 h, MTT, 48 h incubation, mean, n = 3, read-out: IC50 against MDA-MB-231 cells
# [8] = MTT, 48 h incubation, mean, n = 3, read-out: IC50 against T47D cells
# [9] = MTT, 48 h incubation, mean, n = 3, read-out: IC50 against NIH3T3 cells
# [10] = MDA-MB-231, Table 12b, read-out: IC50 MDA-MB-231
# [11] = Table 12b, read-out: IC50 NIH3T3
# [12] = MTT, 48 h incubation, mean, n = 3, read-out: IC50 against HCT116 cells
# [13] = Table 12b, read-out: IC50 HCT116
Structure (SMILES),"IC50 [1, 7]","IC50 [6, 12]","IC50 [4, 9]",also measured
"CC(C)(C)C1CCC2(CC1)OOC1(CCC(OC(=O)N3CCNCC3)CC1)OO2 (stereo not shown) [Compound 37f, 12-(tert-butyl)-7,8,15,16-tetraoxadispiro[5.2.59.26]hexadecan-3-yl piperazine-1-carboxylate]",< 4 µM,–,11.6 µM,"IC50 [1, 10]: 2.9 ± 0.8 µM; selectivity index (IC50 of NIH3T3 divided by IC50 on MDA-MB-231) ([1]; Table 12b, value in bracket): (>4); IC50 [2]: 3.1 µM; IC50 [3, 8]: 1.3 µM; IC50 ([3]; Table 12b, read-out: IC50 T47D): 1.3 ± 0.6 µM; selectivity index (IC50 of NIH3T3 divided by IC50 on T47D) ([3]; Table 12b, value in bracket): (>8.9); IC50 [4, 11]: 11.6 ± 2.4 µM; IC50 [5]: 12.4 µM"
"CC(=O)OC[C@H]1O[C@@H](OCCCCNC(=O)OC2CCC3(CC2)OOC2(CCC(C(C)(C)C)CC2)OO3)[C@H](OC(C)=O)[C@@H](OC(C)=O)[C@@H]1OC(C)=O (stereo partly drawn) [Compound 37h, (2R,3R,4S,5R,6R)-2-(acetoxymethyl)-6-(4-((((12-(tert-butyl)-7,8,15,16-tetraoxadispiro[5.2.59.26]hexadecan-3-yl)oxy)carbonyl)amino)butoxy)tetrahydro-2H-pyran-3,4,5-triyl triacetate]",–,–,–,"IC50 ([1]; MDA-MB-231, 48 h, Table 13, experimental data, MTT, 48 hrs, n = 3, read-out: IC50 MDA-MB-231): 0.4 ± 0.05 µM; selectivity index (IC50 of NIH3T3 divided by IC50 on MDA-MB-231) ([1]; Table 13, value in bracket): (>11); IC50 ([3]; Table 13, experimental data, MTT, 48 hrs, n = 3, read-out: IC50 T47D): 0.6 ± 0.1 µM; selectivity index (IC50 of NIH3T3 divided by IC50 on T47D) ([3]; Table 13, value in bracket): (>7); IC50 ([4]; Table 13, experimental data, MTT, 48 hrs, n = 3, read-out: IC50 NIH3T3): 4.6 ± 1.9 µM; IC50 ([6]; Table 13, experimental data, MTT, 48 hrs, n = 3, read-out: IC50 HCT116): 0.6 ± 0.3 µM; selectivity index (IC50 of NIH3T3 divided by IC50 on HCT116) ([6]; Table 13, value in bracket): (>7)"
"CC(C)(C)C1CCC2(CC1)OOC1(CCC(OC(=O)NCCC[N+](C)(C)C)CC1)OO2 (stereo not shown) [Compound 49, 3-((((12-(tert-butyl)-7,8,15,16-tetraoxadispiro[5.2.59.26]hexadecan-3-yl)oxy)carbonyl)amino)-N,N,N-trimethylpropan-1-aminium iodide]",31.5 µM,> 50 µM,> 50 µM,–
"C[n+]1ccc(CNC(=O)OC2CCC3(CC2)OOC2(CCC(C(C)(C)C)CC2)OO3)cc1 (stereo not shown) [Compound 50, 4-(((((12-(tert-butyl)-7,8,15,16-tetraoxadispiro[5.2.59.26]hexadecan-3-yl)oxy)carbonyl)amino)methyl)-1-methylpyridin-1-ium iodide]",19.2 µM,> 25 µM,44.9 µM,–
"CC(C)(C)C1CCC2(CC1)OOC1(CCC(OC(=O)N3CC[N+](C)(C)CC3)CC1)OO2 (stereo not shown) [Compound 51, 4-(((12-(tert-butyl)-7,8,15,16-tetraoxadispiro[5.2.59.26]hexadecan-3-yl)oxy)carbonyl)-1,1-dimethylpiperazin-1-ium iodide]",26.1 µM,> 50 µM,> 25 µM,–
"CCCC[N+](C)(CCCC)CCCNC(=O)OC1CCC2(CC1)OOC1(CCC(C(C)(C)C)CC1)OO2.[I-] (stereo not shown) [Compound 53, N-butyl-N-(3-((((12-(tert-butyl)-7,8,15,16-tetraoxadispiro[5.2.59.26]hexadecan-3-yl)oxy)carbonyl)amino)propyl)-N-methylbutan-1-aminium iodide]",< 4 µM,6.7 µM,33.7 µM,"IC50 [1, 10]: 3.7 ± 0.4 µM; selectivity index (IC50 of NIH3T3 divided by IC50 on MDA-MB-231) ([1]; Table 12b, value in bracket): (>9.1); IC50 [4, 11]: 33.7 ± 3.4 µM; IC50 [6, 13]: 6.7 ± 1.4 µM; selectivity index (IC50 of NIH3T3 divided by IC50 on HCT116) ([6]; Table 12b, value in bracket): (>5)"
"CC(C)(C)C1CCC2(CC1)OOC1(CCC(OC(=O)NCCC[N+](C)(C)Cc3ccccc3)CC1)OO2 (stereo not shown) [Compound 54, N-benzyl-3-((((12-(tert-butyl)-7,8,15,16-tetraoxadispiro[5.2.59.26]hexadecan-3-yl)oxy)carbonyl)amino)-N,N-dimethylpropan-1-aminium iodide]",14.7 µM,26.2 µM,> 50 µM,–
"CCCC[P+](CCCC)(CCCC)CCCNC(=O)OC1CCC2(CC1)OOC1(CCC(C(C)(C)C)CC1)OO2.[Br-] (stereo not shown) [Compound 56, tributyl(3-((((12-(tert-butyl)-7,8,15,16-tetraoxadispiro[5.2.59.26]hexadecan-3-yl)oxy)carbonyl)amino)propyl)phosphonium bromide]",–,2.7 µM,11.1 µM,"IC50 [1, 10]: 0.97 ± 0.1 µM; selectivity index (IC50 of NIH3T3 divided by IC50 on MDA-MB-231) ([1]; Table 12b, value in bracket): (>11.4); IC50 [4, 11]: 11.1 ± 0.6 µM; IC50 [6, 13]: 2.7 ± 0.3 µM; selectivity index (IC50 of NIH3T3 divided by IC50 on HCT116) ([6]; Table 12b, value in bracket): (>4.1)"
"OC1CCC2(CC1)OOC1(CCCCC1)OO2 [Compound 59, 7,8,15,16-tetraoxadispiro[5.2.59.26]hexadecan-3-ol]",> 50 µM,–,–,–
"C[N+](CCCNC(=O)OC1CCC2(CC1)OOC1(CCCCC1)OO2)(Cc1ccccc1)Cc1ccccc1 [Compound 59a, 3-((((7,8,15,16-tetraoxadispiro[5.2.59.26]hexadecan-3-yl)oxy)carbonyl)amino)-N,N-dibenzyl-N-methylpropan-1-aminium iodide]",10.4 µM,–,–,–
"C#CCCN(CCC[N+](C)(Cc1ccccc1)Cc1ccccc1)C(=O)OC1CCC2(CC1)OOC1(CCC(C(C)(C)C)CC1)OO2.[I-] (stereo not shown) [Compound alk-R-48, N,N-dibenzyl-3-(but-3-yn-1-yl(((12-(tert-butyl)-7,8,15,16-tetraoxadispiro[5.2.59.26]hexadecan-3-yl)oxy)carbonyl)amino)-N-methylpropan-1-aminium iodide]",–,–,10.8 µM,"IC50 [1, 10]: 0.8 ± 0.2 µM; selectivity index (IC50 of NIH3T3 divided by IC50 on MDA-MB-231) ([1]; Table 12b, value in bracket): (>13); IC50 [4, 11]: 10.8 ± 3.7 µM"

# Second part, led by results:
"IC50 [1, 7]","IC50 [6, 12]",Structure (SMILES),"IC50 [4, 9]",also measured
31.7 µM,–,"CC(C)(C)C1CCC2(CC1)OOC1(CCC(OC(=O)NCCCN(Cc3ccccc3)Cc3ccccc3)CC1)OO2 (stereo not shown) [Compound 37d, 12-(tert-butyl)-7,8,15,16-tetraoxadispiro[5.2.59.26]hexadecan-3-yl(3-(dibenzylamino)propyl)carbamate]",30.3 µM,"IC50 [2]: 24.8 µM; IC50 [3, 8]: 10.4 µM; IC50 [5]: > 100 µM"
1.7 µM,–,"CN(CCCNC(=O)OC1CCC2(CC1)OOC1(CCC(C(C)(C)C)CC1)OO2)Cc1ccccc1 (stereo not shown) [Compound 37e, 12-(tert-butyl)-7,8,15,16-tetraoxadispiro[5.2.59.26]hexadecan-3-yl(3-(benzyl(methyl)amino)propyl)carbamate]",1.9 µM,"IC50 [2]: 1.7 µM; IC50 [3, 8]: 1.2 µM; IC50 [5]: 19.3 µM"
2.9 µM,–,"CC(C)(C)C1CCC2(CC1)OOC1(CCC(OC(=O)NCCC[N+](Cc3ccccc3)(Cc3ccccc3)Cc3ccccc3)CC1)OO2 (stereo not shown) [Compound 57, N,N,N-tribenzyl-3-((((12-(tert-butyl)-7,8,15,16-tetraoxadispiro[5.2.59.26]hexadecan-3-yl)oxy)carbonyl)amino)propan-1-aminium iodide]",9.8 µM,–
1.9 µM,–,"O=C(NCCC[P+](c1ccccc1)(c1ccccc1)c1ccccc1)OC1CCC2(CC1)OOC1(CCCCC1)OO2 [Compound 59b, (3-((((7,8,15,16-tetraoxadispiro[5.2.59.26]hexadecan-3-yl)oxy)carbonyl)amino)propyl)triphenylphosphonium bromide]",–,–
24.5 µM,–,"C#CCCNC(=O)OCC(C)(C)C1CCC2(CC1)OOC1(CCC(O)CC1)OO2 [Compound alk-L-37, 2-(12-hydroxy-7,8,15,16-tetraoxadispiro[5.2.59.26]hexadecan-3-yl)-2-methylpropyl but-3-yn-1-ylcarbamate]",–,–
2.1 µM,–,"C#CCCNC(=O)OCC(C)(C)C1CCC2(CC1)OOC1(CCC(OC(=O)NCCC[P+](c3ccccc3)(c3ccccc3)c3ccccc3)CC1)OO2 [Compound alk-L-37b, (3-((((12-(1-((but-3-yn-1-ylcarbamoyl)oxy)-2-methylpropan-2-yl)-7,8,15,16-tetraoxadispiro[5.2.59.26]hexadecan-3-yl)oxy)carbonyl)amino)propyl)triphenylphosphonium bromide]",12.9 µM,–
8.8 µM,–,"C#CCCNC(=O)OCC(C)(C)C1CCC2(CC1)OOC1(CCC(OC(=O)NCCC[N+](C)(Cc3ccccc3)Cc3ccccc3)CC1)OO2 [Compound alk-L-48, N,N-dibenzyl-3-((((12-(1-((but-3-yn-1-ylcarbamoyl)oxy)-2-methylpropan-2-yl)-7,8,15,16-tetraoxadispiro[5.2.59.26]hexadecan-3-yl)oxy)carbonyl)amino)-N-methylpro pan-1-aminium iodide]",18.2 µM,–
2.3 µM,–,"C#CCCN(CCC[P+](c1ccccc1)(c1ccccc1)c1ccccc1)C(=O)OC1CCC2(CC1)OOC1(CCC(C(C)(C)C)CC1)OO2 (stereo not shown) [Compound alk-R-37b, (3-(but-3-yn-1-yl(((12-(tert-butyl)-7,8,15,16-tetraoxadispiro[5.2.59.26]hexadecan-3-yl)oxy)carbonyl)amino)propyl)triphenylphosphonium bromide]",9.7 µM,–
